Data on 1 compound can be found in PMC2737711 (The Journal of neuroscience : the official journal of the …, 2009).

One assay concerns the target T1, C. elegans KCC-2 (Caenorhabditis elegans, UniProt G5EEC9).
T1 sequence (G5EEC9 1-1079): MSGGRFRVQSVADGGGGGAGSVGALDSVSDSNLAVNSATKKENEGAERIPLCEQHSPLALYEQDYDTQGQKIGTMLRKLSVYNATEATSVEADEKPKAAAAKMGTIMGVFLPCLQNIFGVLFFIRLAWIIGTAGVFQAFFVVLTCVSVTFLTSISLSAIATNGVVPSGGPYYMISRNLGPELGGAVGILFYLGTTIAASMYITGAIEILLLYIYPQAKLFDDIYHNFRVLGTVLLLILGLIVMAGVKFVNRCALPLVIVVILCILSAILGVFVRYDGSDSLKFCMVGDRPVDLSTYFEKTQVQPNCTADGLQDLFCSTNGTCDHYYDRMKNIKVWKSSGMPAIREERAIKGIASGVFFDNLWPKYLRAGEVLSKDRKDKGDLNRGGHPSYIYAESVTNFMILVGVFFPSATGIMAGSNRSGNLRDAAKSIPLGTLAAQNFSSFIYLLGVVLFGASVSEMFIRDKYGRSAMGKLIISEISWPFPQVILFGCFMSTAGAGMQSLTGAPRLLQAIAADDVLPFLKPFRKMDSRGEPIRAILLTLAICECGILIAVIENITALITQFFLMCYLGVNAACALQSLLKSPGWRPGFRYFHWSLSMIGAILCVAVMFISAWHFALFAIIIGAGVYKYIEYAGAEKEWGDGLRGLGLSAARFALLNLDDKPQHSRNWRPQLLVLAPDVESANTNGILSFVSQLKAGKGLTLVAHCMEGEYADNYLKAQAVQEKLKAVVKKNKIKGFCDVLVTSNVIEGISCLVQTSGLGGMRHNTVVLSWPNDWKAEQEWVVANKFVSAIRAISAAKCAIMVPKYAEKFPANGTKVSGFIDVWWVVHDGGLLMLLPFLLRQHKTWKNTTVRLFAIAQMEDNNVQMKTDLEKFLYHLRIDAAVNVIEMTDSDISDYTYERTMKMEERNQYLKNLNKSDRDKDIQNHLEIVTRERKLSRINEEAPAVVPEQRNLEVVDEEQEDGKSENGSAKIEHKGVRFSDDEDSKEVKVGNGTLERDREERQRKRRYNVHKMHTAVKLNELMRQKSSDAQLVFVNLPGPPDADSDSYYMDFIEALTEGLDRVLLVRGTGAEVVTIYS
Put plainly: […] influx into Xenopus oocytes. Type of assay: cell-based.

The target of the next assay is T2, rat KCC2 (Rattus norvegicus, UniProt Q63633).
T2 sequence (Q63633 1-1139): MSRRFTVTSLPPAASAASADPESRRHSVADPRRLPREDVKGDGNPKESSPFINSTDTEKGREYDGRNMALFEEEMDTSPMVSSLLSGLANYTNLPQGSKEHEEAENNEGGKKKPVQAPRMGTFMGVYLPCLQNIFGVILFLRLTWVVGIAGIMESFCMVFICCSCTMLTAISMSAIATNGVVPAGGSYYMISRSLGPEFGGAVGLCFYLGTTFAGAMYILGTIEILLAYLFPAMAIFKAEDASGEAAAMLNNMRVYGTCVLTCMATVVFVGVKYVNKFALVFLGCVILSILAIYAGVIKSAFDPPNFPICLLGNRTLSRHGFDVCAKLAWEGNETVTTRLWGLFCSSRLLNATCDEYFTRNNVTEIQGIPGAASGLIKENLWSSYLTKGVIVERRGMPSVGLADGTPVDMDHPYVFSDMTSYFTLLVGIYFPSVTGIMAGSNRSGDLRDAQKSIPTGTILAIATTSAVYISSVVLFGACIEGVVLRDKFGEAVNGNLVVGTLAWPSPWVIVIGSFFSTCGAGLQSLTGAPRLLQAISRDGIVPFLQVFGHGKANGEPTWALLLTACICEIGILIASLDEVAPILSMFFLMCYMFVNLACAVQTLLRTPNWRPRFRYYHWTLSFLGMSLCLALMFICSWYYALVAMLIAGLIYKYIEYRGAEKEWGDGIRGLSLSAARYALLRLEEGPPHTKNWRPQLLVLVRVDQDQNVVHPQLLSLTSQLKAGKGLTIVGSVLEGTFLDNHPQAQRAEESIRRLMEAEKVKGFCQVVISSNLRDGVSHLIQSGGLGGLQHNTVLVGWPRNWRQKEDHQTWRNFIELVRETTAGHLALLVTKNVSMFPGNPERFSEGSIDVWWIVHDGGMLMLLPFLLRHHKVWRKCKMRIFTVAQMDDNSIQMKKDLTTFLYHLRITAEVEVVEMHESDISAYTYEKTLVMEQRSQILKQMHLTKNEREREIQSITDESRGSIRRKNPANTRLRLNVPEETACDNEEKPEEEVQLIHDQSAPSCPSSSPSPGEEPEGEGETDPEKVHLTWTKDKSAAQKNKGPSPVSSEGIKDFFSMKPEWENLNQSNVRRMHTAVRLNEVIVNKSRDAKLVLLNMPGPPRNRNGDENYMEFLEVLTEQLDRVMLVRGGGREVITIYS
Put plainly: […] influx into Xenopus oocytes. Type of assay: cell-based. As to conditions: hypotonic medium, 79 mM chloride, 2 mM RbCl; 0.01 mM ouabain; inhibitor.

A word on the IC50: it is the concentration that gives 50% inhibition. As for `CCCCNc1cc(C(=O)O)cc(S(N)(=O)=O)c1Oc1ccccc1` [bumetanide], the concentration for half-maximal inhibition (IC50) against C. elegans KCC-2 came out at 32 ± 3 µM; at rat KCC2, 72 ± 16 µM.
